From patent US6020342A, “Fused imidazo[1,2-A]pyridines” (Shinnippon Pharmaceutical, Inc., priority 1995, dated 2000)

What was measured:
H^+ /K^+ -ATPase = target: T1, H^+ /K^+ -ATPase (Sus scrofa, UniProt P19156); test: Inhibitory Action on H^+ /K^+ -ATPase Activity; assay type: biochemical; conditions: microsome fraction from porcine gastric mucosa, pH7.4, 37° C., 30 min preincubation, 15 min reaction
T1 construct: a microsome fraction prepared from porcine gastric mucosa was used as a standard enzyme; from tissue; host or cells: porcine gastric mucosa, microsome fraction
T1 sequence (P19156 2-1034 limits assumed): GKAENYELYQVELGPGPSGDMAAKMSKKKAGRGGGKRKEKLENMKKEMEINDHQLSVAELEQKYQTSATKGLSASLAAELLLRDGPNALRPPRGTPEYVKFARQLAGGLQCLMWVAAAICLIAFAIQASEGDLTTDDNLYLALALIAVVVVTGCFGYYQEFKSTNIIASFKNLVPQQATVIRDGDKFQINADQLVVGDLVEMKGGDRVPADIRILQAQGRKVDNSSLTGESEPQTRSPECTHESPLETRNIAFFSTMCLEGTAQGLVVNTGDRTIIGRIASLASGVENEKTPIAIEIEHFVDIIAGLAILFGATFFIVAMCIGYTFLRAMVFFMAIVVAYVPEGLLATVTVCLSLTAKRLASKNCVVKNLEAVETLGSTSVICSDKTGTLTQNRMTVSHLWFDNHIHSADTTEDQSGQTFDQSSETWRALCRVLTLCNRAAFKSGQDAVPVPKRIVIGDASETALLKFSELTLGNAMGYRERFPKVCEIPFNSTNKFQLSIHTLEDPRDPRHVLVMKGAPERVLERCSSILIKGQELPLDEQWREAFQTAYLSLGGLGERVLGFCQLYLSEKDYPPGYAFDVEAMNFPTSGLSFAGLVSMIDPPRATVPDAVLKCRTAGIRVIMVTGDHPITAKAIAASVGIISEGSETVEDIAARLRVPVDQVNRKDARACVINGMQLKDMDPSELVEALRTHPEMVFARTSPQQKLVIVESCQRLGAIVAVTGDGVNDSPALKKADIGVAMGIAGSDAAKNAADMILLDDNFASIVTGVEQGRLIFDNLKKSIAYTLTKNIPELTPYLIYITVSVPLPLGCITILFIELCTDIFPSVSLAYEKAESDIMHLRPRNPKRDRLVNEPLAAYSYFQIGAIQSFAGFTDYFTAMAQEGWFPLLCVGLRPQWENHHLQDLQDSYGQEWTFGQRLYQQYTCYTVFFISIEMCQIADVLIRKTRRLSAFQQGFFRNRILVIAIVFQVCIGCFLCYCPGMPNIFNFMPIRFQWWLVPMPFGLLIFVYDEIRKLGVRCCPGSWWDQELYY
T1 sequence (P18434 whole entry partner): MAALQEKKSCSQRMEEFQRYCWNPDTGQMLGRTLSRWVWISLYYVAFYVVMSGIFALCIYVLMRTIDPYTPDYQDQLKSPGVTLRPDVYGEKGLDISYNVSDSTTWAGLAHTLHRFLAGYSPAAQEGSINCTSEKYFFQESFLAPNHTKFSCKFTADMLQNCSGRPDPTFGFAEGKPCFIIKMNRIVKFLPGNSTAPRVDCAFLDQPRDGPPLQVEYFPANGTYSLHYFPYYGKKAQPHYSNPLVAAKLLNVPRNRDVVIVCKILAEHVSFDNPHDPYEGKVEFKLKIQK
Procedure: Inhibitory Action on H^+ /K^+ -ATPase Activity
According to the method of Hongo et al. [The Japanese Journal of Pharmacology, 52, p295, (1990)], a microsome fraction prepared from porcine gastric mucosa was used as a standard enzyme. The standard enzyme (10-20lig protein) and the test compound (0.1-100 μM) dissolved in dimethylsulfoxide was incubated at 37° C. for 30 minutes in the 50 mM Tris-acetate buffer (pH7.4, containing 2 mM magnesium chloride, 5 mM potassium chloride). The enzyme reaction was started by adding adenosinetriphosphate (ATP). Tris at the final concentration of 2 mM, and the reaction was kept at 37° C. for 15 minutes. The reaction was stopped by adding chilled 10% trichloroacetic acid. Inorganic phosphate released during the reaction was calorimetrically determined according to the method of Fiske-Subbarow [The Journal of Biological Chemistry, 66, p375, (1925)]. H^+ /K^+ -ATPase activity was determined by the difference of the enzyme activities under the conditions with or without potassium chloride. The inhibitory activities of test compounds were determined as the 50% inhibitory concentration (IC50 value) from reaction-concentration curve, and the results are shown in Table 3.

gastric acid secretion = test: Inhibition of Gastric Acid Secretion Observed Under Stomach Perfusion Method; assay type: in vivo, male Sprague Dawrey rats; conditions: Rattus norvegicus, ip, 1 h; rats, histamine i.v. 8 mg/kg/hr, inhibition one hour after administration (1-10 mg/kg, "intrapenetorially"); read-out: ID50 (dose showing 50% inhibition of acid secretion)
Procedure: Inhibition of Gastric Acid Secretion Observed Under Stomach Perfusion Method
Male Sprague Dawrey rats (6-7weeks) fasted for 24 hours were used (water ad libitum). The rats were anesthetized by intraperitoneal administration of 1.25 g/kg of urethane. The abdomen was incised, and gastral cavity was perfused with saline during experiment. The perfusate was titrated by 10 mM sodium hydroxide up to pH5.5 using an autotitrator in accordance with Stat-method. Gastric acid secretion was stimulated by intravenous administration of histamine dihydrochloride (8 mg/kg/hr). Two hours after histamine stimulation, a test compound 1-10 mg/kg) was administered intrapenetorially. The test compound was mixed with small amount of polysorbate-80, and the mixture was suspended in saline. The test compound was evaluated using ID50 (dose showing 50% inhibition of acid secretion) which was calculated based on inhibition of the acid secretion observed one hour after administration of the compound.

Question: `Cc1ccc2ccn3c(N)c(-c4ccccc4C)nc3c2c1` [Compound 10, 3-Amino-9-methyl-2-(2-methylphenyl)imidazo[2,1-a]isoquinoline] was tested. Which IC50 (H^+ /K^+ -ATPase) did it give?
Answer: 20 µM

Question: What about the ED50 (gastric acid secretion) of the same molecule?
Answer: 4.2 mg/kg

Question: With `CCCc1cc2ccccc2c2nc(-c3ccccc3C)c(N)n12` [Compound 12] as the molecule, how does the IC50 (H^+ /K^+ -ATPase) read?
Answer: 12.5 µM

Question: What about the ED50 (gastric acid secretion) of the same molecule?
Answer: 7.2 mg/kg

Question: How did the IC50 (H^+ /K^+ -ATPase) turn out when `Cc1ccccc1-c1nc2c3ccccc3c(CCC(C)C)cn2c1N` [Compound 15, 3-Amino-6-isopentyl-2-(2-methylphenyl)imidazo[2,1-a]isoquinoline] was run?
Answer: 3.7 µM

Question: With `COc1ccc(-c2cn3c(N)c(-c4ccccc4C)nc3c3ccccc23)cc1` [Compound 21, 3-Amino-6-(4-methoxyphenyl)-2-(2-methylphenyl)imidazo[2,1-a]isoquinoline] as the molecule, how does the IC50 (H^+ /K^+ -ATPase) read?
Answer: 7.4 µM

Question: For `Cc1ccccc1-c1nc2c3cc(O)ccc3ccn2c1N` [Compound 22, 3-Amino-9-hydroxy-2-(2-methylphenyl)imidazo[2,1-a]isoquinoline], which IC50 (H^+ /K^+ -ATPase) is on record?
Answer: 1.9 µM

Question: What does the source list for `COc1cn2c(N)c(-c3ccccc3C)nc2c2ccccc12` [Compound 24, 3-Amino-6-methoxy-2-(2-methylphenyl)imidazo[2,1-a]isoquinoline]?
Answer: IC50 (H^+ /K^+ -ATPase): 13.5 µM; ED50 (gastric acid secretion): 5.4 mg/kg

Question: Which IC50 (H^+ /K^+ -ATPase) does the source give for `Cc1ccccc1-c1nc2c3ccccc3c(OCc3ccccc3)cn2c1N` [Compound 38, 3-Amino-6-benzyloxy-2-(2-methylphenyl)imidazo[2,1-a]isoquinoline] here?
Answer: 4.8 µM

Question: `Cc1ccccc1-c1nc2c3cc(OC(=O)C(C)C)ccc3ccn2c1N` [Compound 43, 3-Amino-9-isobutyryloxy-2-(2-methylphenyl)imidazo[2,1-a]isoquinoline] was tested. Which ED50 (gastric acid secretion) did it give?
Answer: 7 mg/kg

Question: `CCN(CC)c1cccc2c1ccn1c(N)c(-c3ccccc3C)nc21` [Compound 54, 3-Amino-7-diethylamino-2-(2-methylphenyl)imidazo[2,1-a]isoquinoline] was tested. Which IC50 (H^+ /K^+ -ATPase) did it give?
Answer: 1 µM

Question: Which ED50 (gastric acid secretion) does the source give for `COc1ccc2cc(C)n3c(N)c(-c4ccccc4C)nc3c2c1` [Compound 56, 3-Amino-9-methoxy-5-methyl-2-(2-methylphenyl)imidazo[2,1-a]isoquinoline] here?
Answer: 6.5 mg/kg

Question: How did the IC50 (H^+ /K^+ -ATPase) turn out when `Cc1sccc1-c1nc2c3ccccc3ccn2c1N` [Compound 78, 3-Amino-2-(2-methyl-3-thienyl)imidazo[2,1-a]isoquinoline] was run?
Answer: 17 µM

Question: What about the ED50 (gastric acid secretion) of the same molecule?
Answer: 1.6 mg/kg

Question: `Cc1cc(-c2nc3c4ccccc4ccn3c2N)c(C)s1` [Compound 83, 3-Amino-2-(2,5-dimethyl-3-thienyl)imidazo[2,1-a]isoquinoline] was tested. Which IC50 (H^+ /K^+ -ATPase) did it give?
Answer: 5.6 µM

Question: Which IC50 (H^+ /K^+ -ATPase) does the source give for `Cn1cccc1-c1nc2c3ccccc3ccn2c1N` [Compound 94, 3-Amino-2-(1-methyl-2-pyrrolyl)imidazo[2,1-a]isoquinoline] here?
Answer: 3 µM

Question: And the ED50 (gastric acid secretion)?
Answer: 5.8 mg/kg

Question: Which results are given for `Cc1ccccc1-c1nc2n(c1N)CCc1ccccc1-2` [Compound 96, 3-Amino-2-(2-methylphenyl)-5,6-dihydroimidazo[2,1-a]isoquinoline]?
Answer: IC50 (H^+ /K^+ -ATPase): 17.5 µM; ED50 (gastric acid secretion): 8.8 mg/kg

Question: Which ED50 (gastric acid secretion) does the source give for `COc1ccc2c(c1)-c1nc(-c3ccccc3C)c(N)n1CC2` [Compound 103, 3-Amino-9-methoxy-2-(2-methylphenyl)-5,6-dihydroimidazo[2,1-a]isoquinoline] here?
Answer: 7.4 mg/kg

Question: For `Cc1ccccc1-c1nc2n(c1N)C(C)(C)Cc1ccccc1-2` [Compound 104, 3-Amino-5,5-dimethyl-2-(2-methylphenyl)-5,6-dihydroimidazo[2,1-a]isoquinoline], which IC50 (H^+ /K^+ -ATPase) is on record?
Answer: 12 µM

Question: Which IC50 (H^+ /K^+ -ATPase) does the source give for `Cc1cc(O)ccc1-c1nc2n(c1N)CCc1ccccc1-2` [Compound 107, 3-Amino-2-(4-hydroxy-2-methylphenyl)-5,6-dihydroimidazo[2,1-a]isoquinoline] here?
Answer: 33 µM

Question: With `CC(=O)N(Cc1ccc(C)cc1)c1c(-c2ccccc2C)nc2c3ccccc3ccn12` [Compound 151, 3-[N-Acetyl-N-(4-methylbenzyl)amino]-2-(2-methylphenyl)imidazo[2,1-a]isoquinoline] as the molecule, how does the IC50 (H^+ /K^+ -ATPase) read?
Answer: 7.8 µM

Question: How did the IC50 (H^+ /K^+ -ATPase) turn out when `CCCc1cccc2c1ccn1c(NCC)c(-c3ccccc3C)nc21` [Compound 163, 3-Ethylamino-2-(2-methylphenyl)-7-propylimidazo[2,1-a]isoquinoline] was run?
Answer: 4.6 µM

Question: Which IC50 (H^+ /K^+ -ATPase) does the source give for `CCNc1c(-c2ccccc2C)nc2c3cccc(OCc4ccccc4)c3ccn12` [Compound 169, 7-Benzyloxy-3-ethylamino-2-(2-methylphenyl)imidazo[2,1-a]isoquinoline] here?
Answer: 5.8 µM

Question: With `Cc1ccc(-c2nc3c4ccccc4ccn3c2NCCC(C)C)c(C)c1` [Compound 189, 3-Isopentylamino-2-(2,4-dimethylphenyl)imidazo[2,1-a]isoquinoline] as the molecule, how does the IC50 (H^+ /K^+ -ATPase) read?
Answer: 6.8 µM

Question: `CCCCCCNc1c(-c2ccccc2C)nc2c3ccccc3ccn12` [Compound 191, 3-Hexylamino-2-(2-methylphenyl)imidazo[2,1-a]isoquinoline] was tested. Which IC50 (H^+ /K^+ -ATPase) did it give?
Answer: 5.2 µM

Question: With `Cc1ccccc1-c1nc2c3ccccc3ccn2c1NC(C)c1ccccc1` (stereo not shown) [Compound 192, 2-(2-Methylphenyl)-3-[(1-phenylethyl)amino]imidazo[2,1-a]isoquinoline] as the molecule, how does the IC50 (H^+ /K^+ -ATPase) read?
Answer: 4.4 µM

Question: Which IC50 (H^+ /K^+ -ATPase) does the source give for `Cc1ccccc1-c1nc2c3ccccc3ccn2c1NCc1ccc2ccccc2c1Br` [Compound 195] here?
Answer: 8.8 µM

Question: With `CCN(CC)c1c(-c2ccccc2C)nc2c3cccc(Br)c3ccn12` [Compound 200, 7-Bromo-3-diethylamino-2-(2-methylphenyl)imidazo[2,1-a]isoquinoline] as the molecule, how does the IC50 (H^+ /K^+ -ATPase) read?
Answer: 1.2 µM

Question: Which IC50 (H^+ /K^+ -ATPase) does the source give for `CCN(CCCl)c1c(-c2ccccc2C)nc2c3ccccc3ccn12` [Compound 202, 3-[N-(2-Chloroethyl)-N-ethylamino]-2-(2-methylphenyl)imidazo[2,1-a]isoquinoline] here?
Answer: 9.8 µM

Question: How did the IC50 (H^+ /K^+ -ATPase) turn out when `CCCN(CC)c1c(-c2ccccc2F)nc2c3ccccc3ccn12` [Compound 206, 3-(N-Ethyl-N-propylamino)-2-(2-fluorophenyl)imidazo[2,1-a]isoquinoline] was run?
Answer: 2.3 µM

Question: Which IC50 (H^+ /K^+ -ATPase) does the source give for `CCCN(CC)c1c(-c2cccc(C)c2)nc2c3ccccc3ccn12` [Compound 211, 3-(N-Ethyl-N-propylamino)-2-(3-methylphenyl)imidazo[2,1-a]isoquinoline] here?
Answer: 2.4 µM

Question: Which IC50 (H^+ /K^+ -ATPase) does the source give for `CCN(Cc1ccc(C)cc1)c1c(-c2ccccc2C)nc2c3ccccc3ccn12` [Compound 219, 3-[N-Ethyl-N-(4-methylbenzyl)amino]-2-(2-methylphenyl)imidazo[2,1-a]isoquinoline] here?
Answer: 3.6 µM

Question: Which IC50 (H^+ /K^+ -ATPase) does the source give for `CCc1ccccc1-c1nc2c3ccccc3ccn2c1N=Cc1ccc(C)cc1` [Compound 226, 2-(2-Ethylphenyl)-3-(4-methylbenzylideneamino)imidazo[2,1-a]isoquinoline] here?
Answer: 1.9 µM

Question: How did the IC50 (H^+ /K^+ -ATPase) turn out when `Cc1cc2sccc2c2nc(-c3ccccc3)c(N)n12` [Compound 230, 3-Amino-5-methyl-2-phenylimidazo[1,2-a]thieno[3,2-c]pyridine] was run?
Answer: 20 µM

Question: What about the ED50 (gastric acid secretion) of the same molecule?
Answer: 6.2 mg/kg

Question: Which IC50 (H^+ /K^+ -ATPase) does the source give for `Nc1c(-c2ccccc2Cl)nc2c3ccsc3ccn12` [Compound 232, 3-Amino-2-(2-chlorophenyl)imidazo[1,2-a]thieno[3,2-c]pyridine] here?
Answer: 17 µM

Question: What about the ED50 (gastric acid secretion) of the same molecule?
Answer: 3.2 mg/kg

Question: For `CCc1cc2sccc2c2nc(-c3ccccc3C)c(N)n12` [Compound 238, 3-Amino-5-ethyl-2-(2-methylphenyl)imidazo[1,2-a]thieno[3,2-c]pyridine], which IC50 (H^+ /K^+ -ATPase) is on record?
Answer: 2.9 µM

Question: `Cc1ccccc1-c1nc2c3ccsc3c(C)c(C)n2c1N` [Compound 239, 3-Amino-5,6-dimethyl-2-(2-methylphenyl)imidazo[1,2-a]thieno[3,2-c]pyridine] was tested. Which IC50 (H^+ /K^+ -ATPase) did it give?
Answer: 26 µM

Question: `COc1ccccc1-c1nc2c3ccsc3cc(C)n2c1N` [Compound 245, 3-Amino-2-(2-methoxyphenyl)-5-methylimidazo[1,2-a]thieno[3,2-c]pyridine] was tested. Which IC50 (H^+ /K^+ -ATPase) did it give?
Answer: 9 µM

Question: How did the IC50 (H^+ /K^+ -ATPase) turn out when `Cc1cc(Cl)ccc1-c1nc2c3ccsc3cc(C)n2c1N` [Compound 248, 3-Amino-2-(4-chloro-2-methylphenyl)-5-methylimidazo[1,2-a]thieno[3,2-c]pyridine] was run?
Answer: 4.7 µM

Question: With `Cc1cc(-c2nc3c4ccsc4ccn3c2N)c(C)s1` [Compound 264, 3-Amino-2-(2,5-dimethyl-3-thienyl)imidazo[1,2-a]thieno[3,2-c]pyridine] as the molecule, how does the IC50 (H^+ /K^+ -ATPase) read?
Answer: 1.2 µM

Question: `Cn1cccc1-c1nc2c3ccsc3ccn2c1N` [Compound 275] was tested. Which IC50 (H^+ /K^+ -ATPase) did it give?
Answer: 24 µM

Question: How did the IC50 (H^+ /K^+ -ATPase) turn out when `Cc1ccccc1-c1nc2c3ccn(Cc4ccccc4)c3ccn2c1N` [Compound 292, 3-Amino-7-benzyl-2-(2-methylphenyl)imidazo[1,2-a]pyrrolo[3,2-c]pyridine] was run?
Answer: 8.8 µM

Question: With `Cc1ccccc1-c1nc2c3sccc3cc(C)n2c1N` [Compound 311, 3-Amino-5-methyl-2-(2-methylphenyl)imidazo[1,2-a]thieno[2,3-c]pyridine] as the molecule, how does the IC50 (H^+ /K^+ -ATPase) read?
Answer: 8 µM

Question: How did the IC50 (H^+ /K^+ -ATPase) turn out when `CCCN(CC)c1c(-c2ccccc2C)nc2c3sccc3ccn12` [Compound 356, 3-(N-Ethyl-N-propylamino)-2-(2-methylphenyl)imidazo[1,2-a]thieno[2,3-c]pyridine] was run?
Answer: 8.4 µM
